# In patent US9943489B2 (PHARMATWOB LTD., priority 2010, dated 2018):
# Key:
# MPTP mouse model of PD [1] = assay: Aminoindan in MPTP mouse model of PD, striatal dopamine by HPLC; assay type: in vivo; conditions: MPTP mice; SR by ALZET pump for 12 days, compared with vehicle or daily IP injection of same drug
# Procedure: (§1) Striatum tissue samples were homogenized in ice in 500 μl homogenization buffer (0.1M perchloric acid, 0.02% EDTA and 1% ETOH) using OMNI Tip homogenizing kit of OMNI International (intermediate speed, 3×10 seconds with 5 seconds intervals). The homogenates were sonicated for 5 min and were then centrifuged at 15,000 rpm at 4° C. for 15 min. The supernatants were transferred into fresh tubes and dopamine content was analyzed by HPLC.
# Male C57B1/6 mice weighing 20+/−1 g were used in all experiments (10 mice per group). MPTP was administrated by IP injection at a dose of 40 mg/Kg per day for 5 days. Controls were naïve untreated mice injected with saline, and MPTP-treated mice injected with saline. Aminoindan was applied for 12 days either by daily IP injection or by sustained release using an ALZET pump implanted IP. The effect of the treatments was assessed by measurement of dopamine and its metabolites (dihydroxyphenylacetic acid and homovanillic acid) in left and right striatum taken from the mice at the end of the experiment. Striatum tissue samples were prepared for HPLC as described in Experimental.
# [2] = rat, in vivo, 1.5 mg/kg
# Procedure: The cannulas were placed either in the colon, duodenum and jugular vein for colonic bolus, duodenal bolus and intravenous bolus administration, respectively. A single bolus dose administration to each compartment was done. In addition, a second indwelling cannula was placed in the right vein of each animal for systemic blood sampling. Blood samples (0.5 ml) were taken at 5 minutes pre-dose, 5, 15, 30, 50, 90, 150 and 200 minutes post-dose. To prevent dehydration, equal volumes of physiological solution were administrated to the rats following each withdrawal of blood sample. […] Non-compartmental pharmacokinetic analysis was performed using Excel software. The area under the curve (AUC) was calculated by non-compartmental analysis to the final measurable sample using the linear-log trapezoid method.
# MPTP mouse model of PD [3] = assay: Rasagiline-pramipexole combinations in MPTP mouse model of PD, striatal dopamine by HPLC; assay type: in vivo; conditions: for dopamine levels compared to naïve mice: sustained release over 24 hours
# From the text: A significant body of biochemical data from human brain autopsy studies and those from animal models point to an ongoing process of oxidative stress in the substantia nigra which could initiate dopaminergic neurodegeneration.
# MPTP is converted in the brain into the positively charged molecule MPP^+ (1-methyl-4-phenylpyridinium) by the enzyme monoamine oxidase (MAO)-B, causing parkinsonism in primates by killing certain dopamine-producing neurons in the substantia nigra. MPP^+ acts by interfering with oxidative phosphorylation in mitochondria, causing depletion of ATP and cell death.
# as §1
# The study included 10 groups of about 7-9 mice each, which were treated according to Table 1. […] MPTP was daily injected, during the initial 5 days (days 0-4), and the drug combinations were administered on days 0-11, either IP or using ALZET pump (ALZET micro-osmotic pump, model 1002 with a rate of 0.25 μl/hr, DURECT Corporation, Cupertino, USA) to simulate sustained release. Groups 5-7 were administered with the drug combination 30 min before MPTP application, daily during the initial five days (day 0-4), and on the following days (5-11) drugs are administrated approximately at the same time each dosing day. The ALZET pump was intraperitonealy implanted 15-17 hours before first MPTP administration (groups 8-10), and the total amount of drugs applied by the pump during the dosing period was identical to that given to the IP-injected groups. Controls were naïve untreated mice injected with saline, and MPTP-administered mice injected with saline.
# Body weight was measured prior to dosing and every day during the dosing, and individual body weight changes were calculated. Clinical signs were recorded twice weekly throughout the entire study. At study termination day 12, all animals were euthanatized via CO2 asphyxiation. The brain was rapidly removed, placed on a refrigerated plate and dissected. The left and right striatum were removed, weighted, snap-frozen in liquid nitrogen, and stored in −70° C. until further processing. Striatum tissue samples were prepared for HPLC as described in Experimental.
# 6-OHDA rat model of PD = conditions: 6-OHDA rats; SR by ALZET pump 28 days compared with daily IP injections; amphetamine 1.5 mg/kg IP, 60 min recording
# From the text: Since in PD it is mainly the dopaminergic nigrostriatal pathway that is subject to degeneration, animal models have been developed in which 6-OHDA lesions of the dopaminergic system were made by unilateral injection of the toxin directly into major efferent projection of the nigrostriatal bundle.
# Unilaterally lesioning of the Medial Forebrain Bundle (MFB) by 6-OHDA causes unilaterally destruction of the dopaminergic neurons of the nigrostriatal pathway leading to asymmetry in motor behavior of rats. […] More specifically, administration of the DA-releasing agent D-amphetamine creates a dopamine imbalance that favors the nonlesioned nigrostriatal projection and thus produces clockwise rotations. […] Drug-induced rotations are measured using an automated rotometer consisting of a rotation bowl and a swivel attached to the torso of the rat.
# Male adult Sprague-Dawley rats weighing 250-300 g were lesioned with 6-OHDA in the middle forebrain bundle (MFB). Rats were anesthetized with Ketamine-Xylazine (85:15) 0.1 ml/100 g and mounted in the stereotaxic apparatus. 6-OHDA was injected into unilateral MFB according to the following stereotaxic coordinates: AP-2.8 mm, ML-2 mm relatively to the bregma, and DV-9 relatively from the Dura. The injection rate was 1 μl/min using an injection pump and Hamilton micro-syringe. […]
SMILES,brain dopamine levels (MPTP mouse model of PD [1]),F (% of IV dose) [2],AUC ([2]; iv),CL ([2]; iv),T1/2 ([2]; iv),Vss ([2]; iv),"dopamine content compared to naïve mice (MPTP mouse model of PD [3]; acute administration, rasagiline 0.1, 0.12 or 0.15 mg/kg (similar effect))",dopamine levels compared to naïve mice (MPTP mouse model of PD [3]; rasagiline 0.1 mg/kg),dopamine levels compared to naïve mice (MPTP mouse model of PD [3]; rasagiline 0.12 mg/kg),dopamine levels compared to naïve mice (MPTP mouse model of PD [3]; rasagiline 0.15 mg/kg),amphetamine-induced net rotation (CW-CCW) (6-OHDA rat model of PD)
"NC1CCc2ccccc21 (centres unmarked) [aminoindan, 1-aminoindan]",significant restoration of dopamine levels,–,–,–,–,–,–,–,–,–,–
"C#CCN[C@@H]1CCc2ccccc21 [rasagiline, R(+)—N-propargyl-1-aminoindan]",–,~100%,"23,641 ± 3,481 hr * ng/ml",54.3 ± 7.1 mL/min/kg,42.7 ± 5.5 min,"2,404 ± 408 ml/Kg",around 60%,57%,74%,88%,significantly improved effect in net rotation
